In patent US11851426B2, “Bicyclic amines as CDK2 inhibitors” (Incyte Corporation, priority 2019, dated 2023) one finds IC50 data, which are given here for 28 compounds.

The assay deals with CDK2/Cyclin E1 (Homo sapiens (Human), UniProt P24941). Kind of assay: CDK2/Cyclin E1 HTRF enzyme activity assay. Particulars: 1 mM ATP; CDK2/Cyclin E1 0.25 nM; 60 minutes at room temperature. The format is biochemical. The method, then:
Example A. CDK2/Cyclin E1 HTRF Enzyme Activity Assay
CDK2/Cyclin E1 enzyme activity assays utilize full-length human CDK2 co-expressed as N-terminal GST-tagged protein with FLAG-Cyclin E1 in a baculovirus expression system (Carna Product Number 04-165). Assays were conducted in white 384-well polystyrene plates in a final reaction volume of 8 μL. CDK2/Cyclin E1 (0.25 nM) was incubated with the compounds of the Examples (40 nL serially diluted in DMSO) in the presence of ATP (50 μM or 1 mM) and 50 nM ULight™-labeled eIF4E-binding protein 1 (THR37/46) peptide (PerkinElmer) in assay buffer (containing 50 mM HEPES pH 7.5, 1 mM EGTA, 10 mM MgCl2, 2 mM DTT, 0.05 mg/mL BSA, and 0.01% Tween 20) for 60 minutes at room temperature. The reactions were stopped by the addition of EDTA and Europium-labeled anti-phospho-4E-BP1 antibody (PerkinElmer), for a final concentration of 15 mM and 1.5 nM, respectively. HTRF signals were read after 1 hour at room temperature on a PHERAstar FS plate reader (BMG Labtech). Data was analyzed with IDBS XLFit and GraphPad Prism 5.0 software using a three or four parameter dose response curve to determine IC50 for each compound.
(In TR-FRET formats the signal depends on donor and acceptor labels being close together.)
For orientation: IC50 means the concentration that inhibits the measured activity by half. On to `CS(=O)(=O)N1CCC(Nc2nc3cc(-c4cn[nH]c4)ccn3n2)CC1` [Example 1, N-(1-(methylsulfonyl)piperidin-4-yl)-7-(1H-pyrazol-4-yl)-[1.2.4]triazolo[1,5-a]pyridin-2-amine], for which the IC50 is at most 20 nM.

As for `CCOc1c(-c2cn[nH]c2)ccn2nc(NC3CCN(S(C)(=O)=O)CC3)nc12` [Example 2, 8-ethoxy-N-(1-(methylsulfonyl)piperidin-4-yl)-7-(1H-pyrazol-4-yl)-[1.2.4]triazolo[1,5-a]pyridin-2-amine], the IC50 is at most 20 nM.

Consider `CC(C)COc1c(-c2cn[nH]c2)ccn2nc(NC3CCN(S(C)(=O)=O)CC3)nc12` [Example 3, 8-isobutoxy-N-(1-(methylsulfonyl)piperidin-4-yl)-7-(1H-pyrazol-4-yl)-[1,2,4]triazolo[1,5-a]pyridin-2-amine], for which the IC50 was at most 20 nM.

As for `CS(=O)(=O)N1CCC(Nc2nc3c(OCC4CC4)c(-c4cn[nH]c4)ccn3n2)CC1` [Example 4, 8-(cyclopropylmethoxy)-N-(1-(methylsulfonyl)piperidin-4-yl)-7-(1H-pyrazol-4-yl)-[1,2,4]triazolo[1,5-a]pyridin-2-amine], the IC50 was at most 20 nM.

Turning to `CS(=O)(=O)N1CCC(Nc2nc3c(OC4CCOCC4)c(-c4cn[nH]c4)ccn3n2)CC1` [Example 5, N-(1-(methylsulfonyl)piperidin-4-yl)-7-(1H-pyrazol-4-yl)-8-((tetrahydro-2H-pyran-4-yl)oxy)-[1,2,4]triazolo[1,5-a]pyridin-2-amine], the IC50 was at most 20 nM.

`COCCOc1c(-c2cn[nH]c2)ccn2nc(NC3CCN(S(C)(=O)=O)CC3)nc12` [Example 6, 8-(2-methoxyethoxy)-N-(1-(methylsulfonyl)piperidin-4-yl)-7-(1H-pyrazol-4-yl)-[1,2,4]triazolo[1,5-a]pyridin-2-amine]: the IC50 was at most 20 nM.

The compound `CS(=O)(=O)N1CCC(Nc2nc3cc(-c4cn[nH]c4)c(F)cn3n2)CC1` [Example 7, 6-fluoro-N-(1-(methylsulfonyl)piperidin-4-yl)-7-(1H-pyrazol-4-yl)-[1,2,4]triazolo[1,5-a]pyridin-2-amine] displayed an IC50 of at most 20 nM.

Turning to `CS(=O)(=O)N1CCC(Nc2nc3cnc(-c4cn[nH]c4)cn3n2)CC1` [Example 8, N-(1-(methylsulfonyl)piperidin-4-yl)-6-(1H-pyrazol-4-yl)-[1,2,4]triazolo[1,5-a]pyrazin-2-amine], the IC50 is at most 20 nM.

For `CS(=O)(=O)N1CCC(Nc2nc3c(OCC(F)F)c(-c4cn[nH]c4)ccn3n2)CC1` [Example 9, 8-(2,2-difluoroethoxy)-N-(1-(methylsulfonyl)piperidin-4-yl)-7-(1H-pyrazol-4-yl)-[1,2,4]triazolo[1,5-a]pyridin-2-amine], the IC50 is at most 20 nM.

`CS(=O)(=O)N1CCC(Nc2nc3c(OCC(F)(F)F)c(-c4cn[nH]c4)ccn3n2)CC1` [Example 10, N-(1-(methylsulfonyl)piperidin-4-yl)-7-(1H-pyrazol-4-yl)-8-(2,2,2-trifluoroethoxy)-[1,2,4]triazolo[1,5-a]pyridin-2-amine] registered an IC50 of at most 20 nM.

In the case of `CS(=O)(=O)N1CCC(Nc2nc3c(OCC4CCOC4)c(-c4cn[nH]c4)ccn3n2)CC1` (stereo not shown) [Example 11, N-(1-(methylsulfonyl)piperidin-4-yl)-7-(1H-pyrazol-4-yl)-8-((tetrahydrofuran-3-yl)methoxy)-[1,2,4]triazolo[1,5-a]pyridin-2-amine], the IC50 is at most 20 nM.

Regarding `CCOc1c(-c2cn[nH]c2)ccn2nc(N[C@H]3CCN(S(C)(=O)=O)C[C@H]3C)nc12` [Example 12, 8-ethoxy-N-((3R,4S)-3-methyl-1-(methylsulfonyl)piperidin-4-yl)-7-(1H-pyrazol-4-yl)-[1,2,4]triazolo[1,5-a]pyridin-2-amine], the IC50 was at most 20 nM.

`CCOc1c(-c2cn[nH]c2)ccn2nc(N[C@H]3CCN(S(=O)(=O)C4CC4)C[C@H]3C)nc12` [Example 13, N-((3R,4S)-1-(cyclopropylsulfonyl)-3-methylpiperidin-4-yl)-8-ethoxy-7-(1H-pyrazol-4-yl)-[1,2,4]triazolo[1,5-a]pyridin-2-amine] came in with an IC50 of at most 20 nM.

`CC(C)Oc1c(-c2cn[nH]c2)ncn2nc(NC3CCN(S(C)(=O)=O)CC3)nc12` [Example 14, 8-isopropoxy-N-(1-(methylsulfonyl)piperidin-4-yl)-7-(1H-pyrazol-4-yl)-[1,2,4]triazolo[1,5-c]pyrimidin-2-amine] yielded an IC50 of at most 20 nM.

`CC(C)COc1c(-c2ccnc3[nH]ccc23)ccn2nc(NC3CCN(S(C)(=O)=O)CC3)nc12` [Example 15, 8-isobutoxy-N-(1-(methylsulfonyl)piperidin-4-yl)-7-(1H-pyrrolo[2,3-b]pyridin-4-yl)-[1,2,4]triazolo[1,5-a]pyridin-2-amine] registered an IC50 of at most 20 nM.

In turn, `CC(C)COc1c(-c2ccnc(N)c2)ccn2nc(NC3CCN(S(C)(=O)=O)CC3)nc12` [Example 16, 7-(2-aminopyridin-4-yl)-8-isobutoxy-N-(1-(methylsulfonyl)piperidin-4-yl)-[1,2,4]triazolo[1,5-a]pyridin-2-amine] gave an IC50 of at most 20 nM.

In turn, `CCOc1c(-c2c[nH]nc2C)ccn2nc(NC3CCN(S(C)(=O)=O)CC3)nc12` [Example 17, 8-ethoxy-7-(3-methyl-1H-pyrazol-4-yl)-N-(1-(methylsulfonyl)piperidin-4-yl)-[1,2,4]triazolo[1,5-a]pyridin-2-amine] registered an IC50 of at most 20 nM.

In turn, `COC(=O)N1CCC(Oc2c(-c3cn[nH]c3)ccn3nc(NC4CCN(S(C)(=O)=O)CC4)nc23)CC1` [Example 18, Methyl 4-((2-((1-(methylsulfonyl)piperidin-4-yl)amino)-7-(1H-pyrazol-4-yl)-[1,2,4]triazolo[1,5-a]pyridin-8-yl)oxy)piperidine-1-carboxylate] returned a half-maximal inhibitory concentration (IC50) of at most 20 nM.

In turn, `CCOc1c(-c2cn[nH]c2)ccn2nc(N[C@H]3CCN(S(=O)(=O)CCN4CC[C@@H](O)C4)C[C@H]3C)nc12` [Example 19, (R)-1-(2-(((3R,4S)-4-((8-ethoxy-7-(1H-pyrazol-4-yl)-[1,2,4]triazolo[1,5-a]pyridin-2-yl)amino)-3-methylpiperidin-1-yl)sulfonyl)ethyl)pyrrolidin-3-ol] showed an IC50 of at most 20 nM.

With `CCOc1c(-c2cn[nH]c2)ccn2nc(N[C@H]3CCN(S(=O)(=O)c4cnn(C)c4)C[C@H]3C)nc12` [Example 20, 8-ethoxy-N-((3R,4S)-3-methyl-1-((1-methyl-1H-pyrazol-4-yl)sulfonyl)piperidin-4-yl)-7-(1H-pyrazol-4-yl)-[1,2,4]triazolo[1,5-a]pyridin-2-amine], the IC50 is at most 20 nM.

For the compound `CCOc1c(-c2cn[nH]c2)ccn2nc(N[C@H]3CCN(S(=O)(=O)c4cnn(C)n4)C[C@H]3C)nc12` [Example 21, 8-ethoxy-N-((3R,4S)-3-methyl-1-((2-methyl-2H-1,2,3-triazol-4-yl)sulfonyl)piperidin-4-yl)-7-(1H-pyrazol-4-yl)-[1,2,4]triazolo[1,5-a]pyridin-2-amine], the IC50 was at most 20 nM.

The compound `CS(=O)(=O)N1CCC(Nc2nc3c(-c4ccccc4)c(-c4cn[nH]c4)ccn3n2)CC1` [Example 22, N-(1-(methylsulfonyl)piperidin-4-yl)-8-phenyl-7-(1H-pyrazol-4-yl)-[1,2,4]triazolo[1,5-a]pyridin-2-amine] showed an IC50 of at most 20 nM.

The compound `CS(=O)(=O)N1CCC(Nc2nc3c(N4CCC(F)CC4)c(-c4cn[nH]c4)ccn3n2)CC1` [Example 23, 8-(4-fluoropiperidin-1-yl)-N-(1-(methylsulfonyl)piperidin-4-yl)-7-(1H-pyrazol-4-yl)-[1,2,4]triazolo[1,5-a]pyridin-2-amine] gave an IC50 of at most 20 nM.

`CS(=O)(=O)N1CCC(Nc2nc3c(Nc4ccccc4)c(-c4cn[nH]c4)ccn3n2)CC1` [Example 24, N^2-(1-(methylsulfonyl)piperidin-4-yl)-N^8-phenyl-7-(1H-pyrazol-4-yl)-[1,2,4]triazolo[1,5-a]pyridine-2,8-diamine] returned an IC50 of at most 20 nM.

The compound `CS(=O)(=O)N1CCC(Nc2nc3c(-c4ccc(F)cc4)c(-c4cn[nH]c4)ccn3n2)CC1` [Example 25, 8-(4-fluorophenyl)-N-(1-(methylsulfonyl)piperidin-4-yl)-7-(1H-pyrazol-4-yl)-[1,2,4]triazolo[1,5-a]pyridin-2-amine] displayed an IC50 of at most 20 nM.

For the compound `CS(=O)(=O)N1CCC(Nc2nc3c(-c4cccc(C(F)(F)F)c4)c(-c4cn[nH]c4)ccn3n2)CC1` [Example 26, N-(1-(methylsulfonyl)piperidin-4-yl)-7-(1H-pyrazol-4-yl)-8-(3-(trifluoromethyl)phenyl)-[1,2,4]triazolo[1,5-a]pyridin-2-amine], the IC50 is at most 20 nM.

As for `CCOc1c(-c2cn[nH]c2)ccn2nc(N[C@H]3CCN(S(=O)(=O)CCCN4CCCCC4)C[C@H]3C)nc12` [Example 27, 8-ethoxy-N-((3R,4S)-3-methyl-1-((3-(piperidin-1-yl)propyl)sulfonyl)piperidin-4-yl)-7-(1H-pyrazol-4-yl)-[1,2,4]triazolo[1,5-a]pyridin-2-amine], the IC50 is at most 20 nM.

As for `CCOc1c(-c2cn[nH]c2)ccn2nc(N[C@H]3CCN(S(=O)(=O)CCCN(C)C)C[C@H]3C)nc12` [Example 28, N-((3R,4S)-1-((3-(dimethylamino)propyl)sulfonyl)-3-methylpiperidin-4-yl)-8-ethoxy-7-(1H-pyrazol-4-yl)-[1,2,4]triazolo[1,5-a]pyridin-2-amine], the IC50 was at most 20 nM.
